Data as given in patent publication US20120039888A1, “Methods Of Inhibiting Inflammation-Associated Tissue Damage By Inhibiting Neutrophil Activity” (priority 2008, published 2012).

Columns and labels:
[1] = tested on: nRBC interactions with adherent leukocytes; test: nRBC-leukocyte interactions, brightfield intravital microscopy of TNF-α-inflamed cremasteric venules; type: in vivo, mouse (C57BL/6); settings: inhibitor given 120 min after TNF-α: PP2 150 μg/kg, SB203580 100 μg, piceatannol 1 mg; compared to vehicle control (DMSO); FIG. 2f
Method: Brightfield intravital microscopy. Brightfield intravital microscopy was performed as previously reported^21,22. For SCD mice, several postcapillary and collecting venules were recorded from 15 min after the surgical preparation (time=0 is surgical section of the cremaster) for 75 minutes (pre-TNF-α), with each venule recorded continuously for at least 2 min. SCD mice were then injected i.p. with 0.5 μg recombinant murine TNF-α (R & D Systems) and then the same venules were videotaped over a period of 90 min (91-180 min), after which venules were recorded again for another 90 min (181-270 min). The role of endothelial selectins was evaluated in identical experiments performed in Selp^−/− or Sele^−/− mice transplanted with BM cells from SCD donor mice, or using antibodies against P- or E-selectin (1 mg/kg) prior to surgery. […] In experiments with non-SCD C57BL/6 mice, TNF-α was administered intrascrotally and images recorded 160-210 min after cytokine injection. […]
Hemodynamic measurements and image analyses for brightfield intravital microscopy. The venular diameter was measured using a video caliper. Centerline RBC velocity was measured for each venule in real time using an optical Doppler velocimeter (Texas A&M, College Station, Tex.). […] Blood flow rate was calculated from the formula: Vmean×π×d^2/4. […]

Balb/c mice [2] = test: Vascular permeability, FITC-dextran extravasation in cremasteric venules after anti-H2d; type: in vivo, mouse (Balb/c); settings: TNF-α-treated mice, pre-treatment with antibodies 1 mg/kg or n-acetyl cysteine 150 mg/kg, imaged 30 min later
Method: Vascular permeability. To analyze anti-MHC-I-induced vascular damage, Balb/c mice were intravenously infused with 3.5 mg/kg of anti-MHC-I antibodies (to H2d or control H2b) and 1 mg of FITC-Dextran (70 Kd; Sigma-Aldrich) 210 min after TNF-α-treatment.
In some experiments, mice were pre-treated with 25 μL rabbit anti-platelet serum to deplete platelets, 1 mg/kg of control, anti-E-selectin or anti-αMβ2 antibodies, or 150 mg/kg of n-acetyl cysteine. Random fields containing small venules were imaged 30 min later using the FITC channel under a LumPlanFl 10× objective, NA 0.30 w. Images were masked over a threshold to quantify all FITC-Dextran-associated fluorescence intensity as well as the signal corresponding only to intravascular spaces. The percentage of extravasated FITC-Dextran was finally obtained using the formula: [(Total intensity−Intravascular intensity)/Total intensity]×100.

[3] = tested on: ROS-producing adherent leukocytes; test: In vivo detection of ROS-producing adherent leukocytes (dihydroxyrhodamine-123, MFIM); set-up: species or system mouse (Balb/c); settings: TNF-α-treated mice; pre-treatment with anti-E-selectin 1 mg/kg or n-acetyl cysteine 150 mg/kg
Method: In vivo detection of leukocytes producing reactive oxygen species (ROS). Balb/c mice prepared for MFIM were injected i.v. with 29 nmoles of dihydroxyrhodamine-123 (DHR; Molecular Probes, Eugene, Oreg.). DHR uptaken by leukocytes actively producing ROS converts into fluorescent rhodamine-123 (507/529 nm) which can be detected by a bright punctuated pattern in the FITC channel (FIG. 11). In some experiments, mice were pre-treated with 25 μL rabbit anti-platelet serum to deplete platelets, 1 mg/kg of anti-E-selectin antibody, or 150 mg/kg of n-acetyl cysteine. Images were captured in the brightfield and FITC channels before and after injection of 3.5 mg/kg anti-H2d antibody, and the frequency of ROS-producing cells calculated out of all adherent leukocytes in each venular segment.

Balb/c mice [4] = test: Antibody-induced acute lung injury (TRALI model), protein content in BAL fluids; type: in vivo, mouse (Balb/c); settings: antibodies 1 mg/kg i.v. or n-acetyl cysteine 150 mg/kg i.v. 5 min before anti-H2d 3.5 mg/kg; BAL 2 h later
Method: Antibody-induced acute lung injury. Balb/c male mice (8-12 week-old) were injected i.v. with 3.5 mg/kg of anti-H2d (clone 34-1-2s) or control H2b (clone 28-8-6s) antibodies. After 2 h, BAL was performed on anesthetized mice by 3 washes with 1 ml PBS each using a 18G needle, and the protein content assessed by the bicinchoninic acid method (BCA; Pierce, Rockford, Ill.). In some experiments, mice were pre-treated as follows: rabbit anti-platelet serum (25 μl; i.p. injection; Accurate Chemicals; Westbury, N.Y.) diluted in 200 μl of PBS, 2 h prior anti-H2d treatment; 1 mg/kg i.v. injection of control or anti-P-selectin, E-selectin or anti-αMβ2 antibodies 5 min before anti-H2d; 150 mg/kg i.v. injection of n-acetyl cysteine 5 min before anti-H2d . Platelet and leukocyte counts from blood samples obtained at the end of the experiment were determined using a hematological Coulter® AC-T diff™ l Analyzer (Beckman Coulter, Miami, Fla.). None of these treatments affected circulating leukocyte counts (not shown). In the TRALI experiments involving intravital imaging of the cremasteric microcirculation, TNF-α was injected intrascrotally to allow the recruitment and imaging of inflammatory leukocytes.

For `CC(C)(C)n1nc(-c2ccc(Cl)cc2)c2c(N)ncnc21` [PP2, 4-amino-5-(4-chlorophenyl)-7-(t-butyl)pyrazolo[3,4-d]pyramidine], the “nRBC (normal red blood cell) interactions with leukocytes” value [1] was “Inhibition of nRBC (normal red blood cell) interactions”.
With `CC(=O)N[C@@H](CS)C(=O)O` [n-acetyl-cysteine] the “vascular permeability (FITC-dextran extravasation) after anti-H2d” value (Balb/c mice [2]) was “completely prevented”, the “vascular permeability (FITC-dextran extravasation) after anti-H2d” value (Balb/c mice [2]; listed as N-acetyl-cysteine) was “prevents” and the “ROS-producing adherent leukocytes after anti-H2d” value [3] was “prevents ROS generation”. For the same molecule, the “lung injury induced by anti-H2d (protein content in BAL fluids)” value (Balb/c mice [4]) was “completely prevented lung injury”.
